How the values were obtained:
[1] = biological target: T1, human native muscle receptors (Homo sapiens, UniProt P02708+P07510+Q07001); experiment: Ca flux assay, TE-671 cells; format: cell-based
T1 construct: human native muscle-type nicotinic receptors (likely α1β1γδ); endogenous in cells; host or cells: TE-671 (TE671/RD)
Description: Activation of muscle-type nAChRs was established on the human clonal line TE671/RD, which is derived from an embryonal rhabdomyosarcoma (Stratton et al., Carcinogen 10: 899 (1989)). These cells express receptors that have pharmacological (Lukas, J. Pharmacol. Exp. Ther. 251: 175 (1989)), electrophysiological (Oswald et al., Neurosci. Lett. 96: 207 (1989)), and molecular biological profiles (Luther et al., J. Neurosci. 9: 1082 (1989)) similar to the muscle-type nAChR.
(§1) (R)-3-((E)-2-(Pyrrolidin-3-yl)vinyl)-5-(tetrahydropyran-4-yloxy)pyridine or a salt thereof was tested in ganglion and muscle-type nicotinic receptor ion flux assays to examine functional selectivity.

[2] = tested on: neuronal nicotinic receptors (α-BnTx insensitive); experiment: Multiple receptor screening assay, nicotinic receptor; format: binding; conditions: single concentration of 10 μM
Method: (R)-3-((E)-2-(Pyrrolidin-3-yl)vinyl)-5-(tetrahydropyran-4-yloxy)pyridine or a salt thereof was tested for selectivity against a panel of 65 receptors.

[3] = biological target: CYP2C9 (Homo sapiens, UniProt P11712); format: in vitro ADME
CYP2C9, sequence (P11712 whole entry): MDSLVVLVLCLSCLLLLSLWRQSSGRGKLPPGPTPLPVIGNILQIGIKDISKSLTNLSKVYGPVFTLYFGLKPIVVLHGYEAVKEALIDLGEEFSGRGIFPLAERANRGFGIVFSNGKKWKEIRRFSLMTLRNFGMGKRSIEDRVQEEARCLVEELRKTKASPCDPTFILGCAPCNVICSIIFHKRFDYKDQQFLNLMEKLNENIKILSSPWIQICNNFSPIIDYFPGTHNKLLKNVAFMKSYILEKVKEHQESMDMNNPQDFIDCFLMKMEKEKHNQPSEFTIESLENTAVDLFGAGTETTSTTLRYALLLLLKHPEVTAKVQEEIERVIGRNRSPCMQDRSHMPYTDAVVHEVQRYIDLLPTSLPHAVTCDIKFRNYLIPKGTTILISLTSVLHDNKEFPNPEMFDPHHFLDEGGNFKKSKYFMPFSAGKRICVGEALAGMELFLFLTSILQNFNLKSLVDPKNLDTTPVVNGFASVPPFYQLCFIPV

[4] = tested on: normal rats; experiment: Novel object recognition (NOR); format: in vivo, rat; conditions: for NOR duration of statistically significant effect after dosing: dose 0.004 μM/kg (0.004 μmol/kg oral), FIG. 2
Method: Memory was assessed by using a three-trial novel object recognition test (Luine et al., Pharm. Biochem. Behav. 74, 213-220 (2002)). On the first day (exploratory trial), rats were allowed to explore an open arena (44.5×44.5×30.5 cm) for 6 min. On the second day (acquisition trial), rats were allowed to explore the same arena in the presence of two identical objects (both object A) for 3 min. On the third day (retention or recall trial), performance was evaluated by allowing the same animal to re-explore the arena for 3 min in the presence of two different objects: the familiar object A and a novel object B. An inter-trial interval of 24 h was imposed between the three NOR trials. Recognition memory was assessed by comparing the time spent exploring a novel (object B) versus a familiar (object A) object during the recall trial. Recognition index was assessed for each animal and expressed as a ratio ((time B/time A+time B)×100).
(R)-3-((E)-2-(Pyrrolidin-3-yl)vinyl)-5-(tetrahydropyran-4-yloxy)pyridine or a salt thereof improved long-term visual episodic/declarative memory as assessed by novel object recognition (NOR) task following oral dosing in normal rats. […] In the two “recall only” sessions; subset of animals were orally dosed with water on day 1 (i.e., exploratory session) and day 2 (i.e., acquisition session) and then orally dosed either with 1.1 μmol/kg (R)-3-((E)-2-(pyrrolidin-3-yl)vinyl)-5-(tetrahydropyran-4-yloxy)pyridine or a salt thereof (left panel) or 0.04 μmol/kg (right panel) on day 3 (i.e., recall session). […] In the Figure, the dashed line at 65% denotes subjective criteria for biological cognitive enhancing activity. *P<0.05.
(R)-3-((E)-2-(Pyrrolidin-3-yl)vinyl)-5-(tetrahydropyran-4-yloxy)pyridine or a salt thereof was evaluated for its duration of effect in the NOR task in normal rats. […] In the Figure, the dashed line at 65% denotes subjective criteria for biological cognitive enhancing activity (*P<0.05).

[5] = format: physicochemical
Description: One aspect of the present invention relates to novel salt forms of (R)-3-((E)-2-(pyrrolidin-3-yl)vinyl)-5-(tetrahydropyran-4-yloxy)pyridine. […] However, the free base may react with both inorganic and organic acids to make acid addition salts that have physical properties that are advantageous for the preparation of pharmaceutical compositions such as crystallinity, water solubility, and stability toward chemical degradation.

[6] = biological target: CYP1A2 (Homo sapiens, UniProt P05177); format: in vitro ADME
CYP1A2, sequence (P05177 whole entry): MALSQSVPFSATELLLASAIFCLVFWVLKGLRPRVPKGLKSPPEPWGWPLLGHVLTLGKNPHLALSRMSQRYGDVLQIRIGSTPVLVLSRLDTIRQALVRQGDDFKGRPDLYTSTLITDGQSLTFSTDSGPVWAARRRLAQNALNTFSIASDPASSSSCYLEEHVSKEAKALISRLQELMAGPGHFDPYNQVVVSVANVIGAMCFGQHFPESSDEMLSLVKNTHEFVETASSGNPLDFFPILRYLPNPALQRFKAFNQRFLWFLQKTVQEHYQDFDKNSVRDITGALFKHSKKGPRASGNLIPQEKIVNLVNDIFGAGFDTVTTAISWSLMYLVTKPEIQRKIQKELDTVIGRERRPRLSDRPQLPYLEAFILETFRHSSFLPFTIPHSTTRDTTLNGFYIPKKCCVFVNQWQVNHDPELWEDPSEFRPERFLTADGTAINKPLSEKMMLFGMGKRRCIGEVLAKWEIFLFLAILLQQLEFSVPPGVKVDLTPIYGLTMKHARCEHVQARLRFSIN

[7] = biological target: CYP3A4 (Homo sapiens, UniProt P08684); format: in vitro ADME
[8] = human
Description: Therefore any variation of (R)-3-((E)-2-(pyrrolidin-3-yl)vinyl)-5-(tetrahydropyran-4-yloxy)pyridine or a salt thereof metabolism in human due to CYP polymorphism is expected to be less than 2 fold due to the significant renal clearance and low hepatic clearance.

[9] = biological target: CYP2D6 (Homo sapiens, UniProt P10635); format: in vitro ADME
[10] = biological target: α4β2 (Homo sapiens, UniProt P17787+P43681); experiment: Calcium flux assay, SH-EP1/human α4β2 cells; format: cell-based; parameters: expressed in transfected cells; host or cells: SH-EP1
α4β2, sequence (P43681 29-627 limits assumed): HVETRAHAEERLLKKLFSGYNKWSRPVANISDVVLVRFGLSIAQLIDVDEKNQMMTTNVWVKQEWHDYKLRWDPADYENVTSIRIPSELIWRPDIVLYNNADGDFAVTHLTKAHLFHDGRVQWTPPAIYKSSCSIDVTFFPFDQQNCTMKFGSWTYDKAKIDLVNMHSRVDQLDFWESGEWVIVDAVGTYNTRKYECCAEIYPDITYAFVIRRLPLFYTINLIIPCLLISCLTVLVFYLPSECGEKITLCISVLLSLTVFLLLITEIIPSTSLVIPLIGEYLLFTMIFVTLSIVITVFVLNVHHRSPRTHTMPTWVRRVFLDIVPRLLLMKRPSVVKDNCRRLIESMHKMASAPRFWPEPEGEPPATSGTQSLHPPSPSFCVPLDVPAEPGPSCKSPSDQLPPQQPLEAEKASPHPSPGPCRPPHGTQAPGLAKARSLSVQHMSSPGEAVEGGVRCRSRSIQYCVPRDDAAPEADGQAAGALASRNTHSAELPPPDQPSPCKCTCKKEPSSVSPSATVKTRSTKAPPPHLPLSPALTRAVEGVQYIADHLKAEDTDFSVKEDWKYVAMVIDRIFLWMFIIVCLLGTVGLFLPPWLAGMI
α4β2, sequence (P17787 26-502): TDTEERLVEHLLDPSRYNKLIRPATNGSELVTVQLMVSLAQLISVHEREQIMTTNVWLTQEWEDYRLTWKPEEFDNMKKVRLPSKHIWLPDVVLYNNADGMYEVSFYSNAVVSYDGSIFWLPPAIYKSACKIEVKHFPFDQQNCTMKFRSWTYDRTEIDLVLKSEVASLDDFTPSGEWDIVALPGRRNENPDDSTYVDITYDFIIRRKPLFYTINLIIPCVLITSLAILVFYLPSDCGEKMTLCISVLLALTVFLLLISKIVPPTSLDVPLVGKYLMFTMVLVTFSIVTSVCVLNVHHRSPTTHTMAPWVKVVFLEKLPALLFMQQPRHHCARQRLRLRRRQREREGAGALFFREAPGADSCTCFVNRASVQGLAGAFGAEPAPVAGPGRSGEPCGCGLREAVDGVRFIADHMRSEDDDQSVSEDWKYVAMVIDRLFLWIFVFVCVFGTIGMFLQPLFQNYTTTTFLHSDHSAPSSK
Description: Cellular efficacy: The aim of these studies was to determine functional activity of (R)-3-((E)-2-(pyrrolidin-3-yl)vinyl)-5-(tetrahydropyran-4-yloxy)pyridine or a salt thereof at human recombinant α4β2 receptors.

[11] = biological target: T2, human native ganglion receptors (Homo sapiens, UniProt P30926+P32297); experiment: Ca flux assay, SH-SY5Y cells; format: cell-based
T2 construct: human native ganglion-type nicotinic receptors (likely α3β4); endogenous in cells; host or cells: SH-SY5Y
T2 sequence (P32297 32-505): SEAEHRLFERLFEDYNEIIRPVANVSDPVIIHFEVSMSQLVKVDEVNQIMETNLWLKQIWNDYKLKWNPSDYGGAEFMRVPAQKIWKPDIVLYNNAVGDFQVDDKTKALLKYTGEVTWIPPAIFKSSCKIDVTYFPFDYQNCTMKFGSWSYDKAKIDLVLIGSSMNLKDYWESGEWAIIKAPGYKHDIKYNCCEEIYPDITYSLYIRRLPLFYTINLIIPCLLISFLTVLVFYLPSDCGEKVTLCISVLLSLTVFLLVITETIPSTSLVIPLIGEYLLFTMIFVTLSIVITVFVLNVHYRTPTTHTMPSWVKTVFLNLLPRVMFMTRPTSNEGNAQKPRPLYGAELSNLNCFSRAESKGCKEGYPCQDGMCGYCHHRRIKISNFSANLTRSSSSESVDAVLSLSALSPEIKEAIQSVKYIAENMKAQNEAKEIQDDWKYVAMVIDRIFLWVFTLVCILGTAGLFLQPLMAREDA
T2 sequence (P30926 22-498): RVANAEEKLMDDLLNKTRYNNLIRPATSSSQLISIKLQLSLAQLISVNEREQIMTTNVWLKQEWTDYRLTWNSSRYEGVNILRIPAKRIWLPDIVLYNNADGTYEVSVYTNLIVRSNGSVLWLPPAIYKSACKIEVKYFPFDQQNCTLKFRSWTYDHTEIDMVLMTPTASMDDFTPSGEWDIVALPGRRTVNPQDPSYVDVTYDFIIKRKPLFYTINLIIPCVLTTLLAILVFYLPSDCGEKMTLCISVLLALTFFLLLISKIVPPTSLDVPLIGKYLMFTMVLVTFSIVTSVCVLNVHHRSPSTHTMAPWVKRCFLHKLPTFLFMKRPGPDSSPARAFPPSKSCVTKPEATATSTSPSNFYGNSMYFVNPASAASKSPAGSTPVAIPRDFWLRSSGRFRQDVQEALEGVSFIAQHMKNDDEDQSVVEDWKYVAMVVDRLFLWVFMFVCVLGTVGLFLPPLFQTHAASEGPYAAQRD
Method: The cell line SH-SY5Y is a continuous line derived by sequential subcloning of the parental cell line, SK-N-SH, which was originally obtained from a human peripheral neuroblastoma. SH-SY5Y cells express a ganglion-like nAChR (Lukas et al., Mol. Cell. Neurosci. 4: 1 (1993)).
as §1

T1 sequence (P02708 21-457): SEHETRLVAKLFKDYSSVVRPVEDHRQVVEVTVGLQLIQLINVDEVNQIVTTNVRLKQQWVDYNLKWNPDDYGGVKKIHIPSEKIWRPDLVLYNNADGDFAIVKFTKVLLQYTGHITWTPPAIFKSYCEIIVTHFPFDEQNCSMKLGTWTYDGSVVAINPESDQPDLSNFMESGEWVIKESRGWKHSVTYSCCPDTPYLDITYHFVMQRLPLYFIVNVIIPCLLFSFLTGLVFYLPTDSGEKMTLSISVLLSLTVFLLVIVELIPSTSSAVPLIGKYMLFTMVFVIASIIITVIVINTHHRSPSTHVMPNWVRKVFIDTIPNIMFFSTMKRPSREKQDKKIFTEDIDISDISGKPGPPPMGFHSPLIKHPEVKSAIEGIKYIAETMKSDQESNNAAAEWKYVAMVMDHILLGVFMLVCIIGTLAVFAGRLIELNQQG
T1 sequence (P11230 24-501 partner): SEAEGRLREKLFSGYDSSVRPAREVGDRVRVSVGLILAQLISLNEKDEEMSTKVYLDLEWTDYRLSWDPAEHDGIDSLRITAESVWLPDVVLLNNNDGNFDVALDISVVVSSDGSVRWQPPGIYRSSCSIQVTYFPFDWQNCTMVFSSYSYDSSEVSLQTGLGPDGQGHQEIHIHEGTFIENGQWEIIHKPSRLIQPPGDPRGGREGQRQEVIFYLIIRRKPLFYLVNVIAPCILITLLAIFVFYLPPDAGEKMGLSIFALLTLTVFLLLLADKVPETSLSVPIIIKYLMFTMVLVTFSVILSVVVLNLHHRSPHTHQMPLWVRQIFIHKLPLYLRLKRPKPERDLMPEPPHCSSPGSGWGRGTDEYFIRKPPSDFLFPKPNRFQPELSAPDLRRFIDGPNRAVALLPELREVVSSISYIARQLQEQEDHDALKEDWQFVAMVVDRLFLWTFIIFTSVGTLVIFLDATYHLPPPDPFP
T1 sequence (P07510 23-517): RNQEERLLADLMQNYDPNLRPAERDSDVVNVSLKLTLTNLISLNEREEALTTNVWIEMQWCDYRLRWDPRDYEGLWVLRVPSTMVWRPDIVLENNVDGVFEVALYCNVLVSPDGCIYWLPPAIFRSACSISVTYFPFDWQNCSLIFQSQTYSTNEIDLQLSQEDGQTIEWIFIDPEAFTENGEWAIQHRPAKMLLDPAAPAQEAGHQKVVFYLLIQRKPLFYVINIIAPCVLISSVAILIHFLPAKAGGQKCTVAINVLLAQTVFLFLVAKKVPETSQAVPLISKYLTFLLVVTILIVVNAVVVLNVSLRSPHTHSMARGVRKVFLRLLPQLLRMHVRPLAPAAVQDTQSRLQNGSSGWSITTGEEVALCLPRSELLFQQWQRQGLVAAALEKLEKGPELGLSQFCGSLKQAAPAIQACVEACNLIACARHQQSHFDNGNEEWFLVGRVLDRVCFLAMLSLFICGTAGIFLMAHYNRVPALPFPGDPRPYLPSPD
T1 sequence (Q07001 22-517): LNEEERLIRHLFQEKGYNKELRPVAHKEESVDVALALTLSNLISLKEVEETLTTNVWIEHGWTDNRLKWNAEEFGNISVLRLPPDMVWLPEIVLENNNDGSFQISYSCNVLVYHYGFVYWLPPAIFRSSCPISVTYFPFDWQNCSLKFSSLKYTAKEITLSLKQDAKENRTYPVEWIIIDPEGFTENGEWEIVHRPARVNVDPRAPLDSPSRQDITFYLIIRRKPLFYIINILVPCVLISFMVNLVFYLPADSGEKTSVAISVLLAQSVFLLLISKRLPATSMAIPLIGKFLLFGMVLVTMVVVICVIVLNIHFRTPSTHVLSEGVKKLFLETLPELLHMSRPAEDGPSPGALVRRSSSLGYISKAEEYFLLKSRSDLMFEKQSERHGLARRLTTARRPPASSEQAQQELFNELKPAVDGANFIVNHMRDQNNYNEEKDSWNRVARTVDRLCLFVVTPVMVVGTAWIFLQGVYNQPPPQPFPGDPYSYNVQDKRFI

SMILES: C(=C\[C@H]1CCNC1)/c1cncc(OC2CCOCC2)c1 [Compound A, (R)-3-((E)-2-(pyrrolidin-3-yl)vinyl)-5-(tetrahydropyran-4-yloxy)pyridine]
- EC50 [1]: 13 µM
- Human (TE671/RD) muscle Emax (Ca flux) ([1]; TE-671 cells): μM, 37%
- Emax ([1]; TE-671 cells, read-out: Human (TE671/RD) muscle Emax (Ca flux)): 37%
- inhibition of binding of labelled ligand [2]: 99%
- time-dependent inhibition of CYP2C9 [3]: no evidence of time-dependent inhibition
- NOR recognition index ([4]; 0.004 μmol/kg oral, 0.5 h after dosing): 72±2%
- NOR recognition index ([4]; 0.004 μmol/kg oral, 6 h after dosing): 70±3%
- NOR recognition index ([4]; 0.004 μmol/kg oral, 8 h after dosing): 70±4%
- NOR recognition index ([4]; 0.04 μmol/kg oral, normal rats, 24 h after acquisition trial): 71±2%
- NOR recognition index ([4]; 1.1 μmol/kg oral, normal rats, 24 h after acquisition trial): 61±3%
- NOR lowest dose with statistically significant effect ([4]; FIG. 1): ≥ 0.004 µM/kg
- NOR duration of statistically significant effect after dosing [4]: ≤ 8 h
- NOR duration of statistically significant effect after dosing ([4]; listed as (R)-3-((E)-2-(pyrrolidin-3-yl)vinyl)-5-(tetrahydropyran-4-yloxy)pyridine): up to 8 h
- NOR duration of statistically significant effect after dosing ([4]; listed as Formula I): ≤ 8 h
- NOR minimum effect dose (MED) ([4]; oral, follow-up NOR study, rats): 0.004 µmol/kg
- NOR recognition index, recall only sessions ([4]; single oral administration on day 3, 1.1 μmol/kg or 0.04 μmol/kg): significantly above controls
- water solubility [5]: limited water solubility
- time-dependent inhibition of CYP1A2 [6]: no evidence of time-dependent inhibition
- time-dependent inhibition of CYP3A4 [7]: no evidence of time-dependent inhibition
- renal clearance share of total clearance [8]: more than 50%
- time-dependent inhibition of CYP2D6 [9]: no evidence of time-dependent inhibition
- EC50 [10]: 100 nM
- Emax ([10]; SH-EP1, read-out: Human recombinant (SH-EP 1) α4β2 Emax (Ca flux)): 76%
- Human recombinant (SH-EP 1) α4β2 Emax (Ca flux) ([10]; in relation to 10 μM nicotine, 24-h incubation at 29° C.): μM, 76%
- EC50 [11]: 11 µM
- Human ganglionic (SH-SY5Y) Emax (Ca flux) ([11]; SH-SY5Y cells): μM, 13%
- Emax ([11]; SH-SY5Y cells, read-out: Human ganglionic (SH-SY5Y) Emax (Ca flux)): 13%

Reference: patent publication US8153821B2, “Compounds” (priority 2008, dated 2012)
